Measurements reported in PMC8587785, “A New Class of Uracil–DNA Glycosylase Inhibitors Active against Human and Vaccinia Virus Enzyme” (Molecules, 2021).
“Also recorded” adds a separate entry of the source. Read-outs that look alike come from different tables or passages of the source.

Assays:
hUNG [1] = biological target: T1, hUNG (Homo sapiens, UniProt P13051); experiment: Uracil–DNA glycosylase assay, biochemical screening against hUNG (cleavage of 32P-labeled ssDNA 20-mer with dU); conditions: for hUNG inhibition, dose response: inhibitors at 10, 100 and 1000 μM; for IC50: conditions used for screening: 50 nM substrate, 20 pM enzyme, 10 min, 37 °C
T1 construct: truncated catalytically active human uracil–DNA glycosylase (hUNG ΔN84); His6 (N); linker with thrombin cleavage site (pET-15b) (N); made in house; host or cells: E. coli BL21(DE3), pET-15b
Procedure: As hUNG excises Ura from single- and double-stranded DNA with similar efficiency, we have used the cleavage of a 20-mer single-stranded DNA oligonucleotide containing a dU residue in position 8 (Section 4.1) to assay hUNG activity in the presence of inhibitors. Twenty-three identified compounds were tested at 10, 100, and 1000 μM (Figure 2a). […] However, even the best inhibitor, 4B, had IC50 between 100 and 1000 μM under the conditions used for screening.
Figure 2 Biochemical screening of the inhibitors identified by molecular docking. (a) hUNG activity in the presence of the inhibitors at 10 μM (black bars), 100 μM (light gray bars), or 1000 μM (dark gray bars). The activity is normalized for that in the absence of the inhibitor. Means and SD of three independent experiments are shown; (b) Structures of the compounds 2D, 3A, 3B, 4B, 4E, 4F, and 4G.
The identified compounds were purchased from Vitas-M Laboratory (Vitas-M Laboratory, Ltd., Hong Kong, China). The reaction mixture (10 μL) included 25 mM sodium phosphate (pH 7.5), 1 mM dithiothreitol, 1 mM Na-EDTA, 50 nM ^32P-labeled substrate, 20 pM enzyme, and the inhibitors at 10, 100, and 1000 μM. The reaction was carried out for 10 min at 37 °C, terminated by adding NaOH to 100 mM and heating for 2 min at 95 °C, and neutralized by an equimolar amount of HCl. The mixture was supplemented with 5 μL of formamide dye (80% formamide, 20 mM Na-EDTA, 0.1% xylene cyanol, 0.1% bromophenol blue), and the reaction products were separated by gel electrophoresis in 20% polyacrylamide/7.2 M urea. The gels were visualized and quantified by phosphorimaging using the Typhoon FLA 9500 system (GE Healthcare, Chicago, IL, USA).

[2] = biological target: T2, vaccinia virus UNG (vvUNG, D4 protein) (Vaccinia virus, UniProt P20536); assay type: biochemical; conditions: at 100 μM
T2 construct: made in house

hUNG [3] = biological target: T1, hUNG; experiment: Inhibition mechanism determination, steady-state kinetics of substrate cleavage by hUNG; assay type: biochemical; conditions: for θ rel (Akaike’s relative likelihood of the model): best model’s likelihood taken for 1; for Vmax: fit in the presence of the inhibitor; for mode of inhibition: fit to competitive, uncompetitive and mixed models
Procedure: KM and Vmax parameters of the Michaelis–Menten scheme were determined at different inhibitor concentrations, and the results were analyzed by fitting to competitive, uncompetitive, and mixed inhibition models (Figure 3, Table 1). Akaike’s information criterion was used to compare the quality of fit under the models. […] The kinetic values reported for ssDNA cleavage by hUNG in the literature vary widely (0.22–13.8 μM for KM, 647–1060 min^−1 for kcat) yet generally agree with our data.
The reactions were performed as described above except that the substrate concentrations were 0.1, 0.3, 0.5, 0.7, 1, 3, 5, 7, and 10 μM, and the inhibitors concentrations were 0, 100, 300, 500, and 1000 μM. […] To determine the type of inhibition and calculate Ki, the data were fit to the competitive, uncompetitive, and mixed inhibition models using an R script.

HEK 293FT cells = experiment: Cell toxicity assay (MTT); assay type: cell-based, human; conditions: for EC50: Homo sapiens, HEK293FT, 72 h, read-out: effective concentration (toxicity)
Description: To assess the toxicity of UNG inhibitors for human cells, we have treated HEK293 cell line with the compounds 4B and 4F as the best inhibitors (Table 1). […] Since Ura preferentially accumulates in DNA from a dUTP pool, we have next tested the toxicity of these UNG inhibitors in the presence of MTX, which is an antimetabolite drug that inhibits dihydrofolate reductase, reduces the availability of tetrahydrofolate, and thus suppresses the conversion of […].
Figure 4 Cytotoxicity of UNG inhibitors. (a) Survival of HEK 293FT cells in the presence of the UNG inhibitors 4B and 4F (0.8–500 μM); (b) survival of HEK 293FT cells in the presence of MTX alone (0.02–10 μM) or 100 μM 4B plus MTX (0.1–10 μM); (c) survival of HEK 293FT cells in the presence of the UNG inhibitors 4B and 4F (0.8–500 μM) plus 0.1 μM MTX. In Panel C, the survival in the presence of 0.1 μM MTX alone is taken for 100%. Mean ± s. e. m. is shown (n = 3).
Human embryonic kidney cells (HEK 293FT) were from Thermo Fisher Scientific (Waltham, MA, USA; Cat. #R70007). The laboratory stock was regularly checked for the absence of mycoplasma contamination by PCR. Cells were grown in T25 cm^2 flasks in the complete medium (Dulbecco’s modified Eagle’s medium supplemented with 10% fetal bovine serum, 1 mM sodium pyruvate, 2 mM L-glutamine, and 1% penicillin–streptomycin–amphotericin B) as adherent monolayer cultures. The cultures were maintained at 37 °C in humidified atmosphere with 5% CO2. Cytotoxicity was determined by the colorimetric MTT (3-(4,5-dimethyl-2-thiazolyl)-2,5-diphenyl-2H-tetrazolium bromide) assay. The cells were harvested by trypsinization, seeded in the complete medium (100 μL per well) into 96-well plates at the density of 1.4×10^4 cells per well, and incubated for 24 h to settle and resume proliferation. MTX was dissolved in 1 M NaOH to 22 mM. […] After 15 min at room temperature to solubilize the formed formazan, A570 and A620 were measured with a Multiskan EX microplate reader (Thermo Fisher Scientific, Waltham, MA, USA). […]

947 human cell lines = conditions: read-out: median EC50; cited from earlier work
hUNG [4] = biological target: T1, hUNG; conditions: open (not DNA-bound) conformation; cited from earlier work
E. coli UNG = conditions: cited from earlier work
[5] = competitive model, read-out: Ki
[6] = uncompetitive model, read-out: Ki

Structure (SMILES)	hUNG inhibition, dose response (hUNG [1])	suppression of vvUNG activity [2]	θ rel (Akaike’s relative likelihood of the model) (hUNG [3]; competitive model)	Vmax (hUNG [3]; competitive model)	mode of inhibition (hUNG [3])	θ rel (Akaike’s relative likelihood of the model) (hUNG [3]; uncompetitive model)	Vmax (hUNG [3]; uncompetitive model)	also measured
Cc1ccc(C=C2C(=O)NC(=O)NC2=O)o1 [2D]	progressively lower substrate cleavage with the increasing inhibitor concentration	≈ 50%						
CN(C)c1ccc(C=C2C(=O)NC(=O)NC2=O)cc1 [3A]	progressively lower substrate cleavage with the increasing inhibitor concentration; also recorded: weak dose response	≈ 50%	0.655	0.029 ± 0.003 µM/min	the uncompetitive model was marginally better	best model	0.034 ± 0.004 µM/min	Ki (hUNG [3]; Ki, competitive model): 530 ± 270 µM; Ki (hUNG [3]; Ki, uncompetitive model): 1300 ± 500 µM
O=C1NC(=O)C(=Cc2ccco2)C(=O)N1 [3B]		≈ 50%						
COc1ccc(C=C2C(=O)NC(=O)NC2=O)c(OC)c1 [4B]	progressively lower substrate cleavage with the increasing inhibitor concentration; also recorded: more pronounced dose response	≈ 50%	best model	0.019 ± 0.001 µM/min	clearly better described by the competitive inhibition model	2.53 × 10^−5	0.024 ± 0.003 µM/min	IC50 (hUNG [1]): submillimolar range; IC50 (hUNG [1]; read-out: IC50): 100 to 1000 µM; Ki (hUNG [3]; [5]): 140 ± 40 µM; Ki (hUNG [3]; [6]): 550 ± 140 µM; EC50 (HEK 293FT cells): 69 ± 1 µM
Cc1ccc(C#N)c(SCc2cc(=O)[nH]c(=O)[nH]2)n1 [4E]	progressively lower substrate cleavage with the increasing inhibitor concentration							
COc1cc(C=C2C(=O)NC(=O)NC2=O)cc(Cl)c1OC [4F]	progressively lower substrate cleavage with the increasing inhibitor concentration; also recorded: more pronounced dose response		0.8	0.053 ± 0.014 µM/min	the uncompetitive model was marginally better	best model	0.075 ± 0.028 µM/min	IC50 (hUNG [1]): submillimolar range; Ki (hUNG [3]; [5]): 200 ± 130 µM; Ki (hUNG [3]; [6]): 250 ± 140 µM; EC50 (HEK 293FT cells): 77 ± 1 µM
CC(Oc1ccc(C=C2C(=O)NC(=O)NC2=O)cc1)C(=O)O (centres unmarked) [4G]	progressively lower substrate cleavage with the increasing inhibitor concentration; also recorded: more pronounced dose response		best model	0.042 ± 0.002 µM/min	clearly better described by the competitive inhibition model	0.312	0.043 ± 0.003 µM/min	Ki (hUNG [3]; Ki, competitive model): 3300 ± 2300 µM; Ki (hUNG [3]; Ki, uncompetitive model): > 10000 µM
CN(Cc1cnc2nc(N)nc(N)c2n1)c1ccc(C(=O)N[C@@H](CCC(=O)O)C(=O)O)cc1 [MTX, methotrexate, reference compound]								reduction in the cell viability (HEK 293FT cells; 0.1 μM MTX without the inhibitors): 20–25%; EC50 (947 human cell lines): 0.595 µM
O=C(O)C1=CC(=C(c2ccc(O)c(C(=O)O)c2)c2ccc(O)c(C(=O)O)c2)C=CC1=O [aurintricarboxylic acid]								affinity (hUNG [4]): submicromolar affinity
CNC(C)C1CCC(N)C(OC2C(N)CC(N)C(OC3OCC(C)(O)C(NC)C3O)C2O)O1 (centres unmarked) [gentamicin]								IC50 (E. coli UNG): ~1000 µM
